Measurements: the NIST ThermoML archive (doi:10.1016/j.fluid.2008.06.011)

Assay: excess molar enthalpy (molar enthalpy of mixing); xn = mol fraction of the nth substance listed
Conditions: 298.15 K, 101 kPa, Liquid, Calvet calorimetry

CCCCCCCCCC [decane] + CCCO
Conditions	excess molar enthalpy [kcal/mol]
x2 = 0.1544	0.158
x2 = 0.1615	0.162
x2 = 0.2718	0.184
x2 = 0.3642	0.189
x2 = 0.4594	0.188
x2 = 0.5576	0.176
x2 = 0.6121	0.165
x2 = 0.6669	0.151
x2 = 0.7249	0.136
x2 = 0.7574	0.125
x2 = 0.7667	0.123
x2 = 0.8113	0.107
x2 = 0.8517	0.0894
x2 = 0.885	0.0741
x2 = 0.9219	0.0535
x2 = 0.9602	0.0292
x2 = 0.9832	0.0103
